Biological target: Bcl-2 (Homo sapiens, UniProt P10415)
Assay: Bcl-2 binding affinity analysis (fluorescence polarization binding assay)
From the text: Bcl-2 and Bcl-xL binding can be determined using a variety of known methods. One such assay is a sensitive and quantitative in vitro binding assay using fluorescence polarization (FP) described by Wang, J.-L.; Zhang, Z-J.; Choksi, S.; Sjam. S.; Lu, Z.; Croce, C. M.; Alnemri, E. S.; Komgold, R.; Huang, Z. Cell permeable Bcl-2 binding peptides: a chemical approach to apoptosis induction in tumor cells. Cancer Res. 2000, 60, 1498-1502).
Bcl-2 binding affinity analysis data is presented below for various compounds of the invention.

Bcl-2, sequence (P10415 whole entry): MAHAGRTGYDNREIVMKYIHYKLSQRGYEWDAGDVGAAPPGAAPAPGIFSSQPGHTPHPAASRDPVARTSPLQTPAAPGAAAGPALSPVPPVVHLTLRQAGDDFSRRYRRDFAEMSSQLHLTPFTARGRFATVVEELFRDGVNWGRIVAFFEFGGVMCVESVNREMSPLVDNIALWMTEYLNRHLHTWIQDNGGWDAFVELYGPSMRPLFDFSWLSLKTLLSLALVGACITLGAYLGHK

COc1c(CN2C[C@H](O)[C@@H]([C@H](C)O)[C@H]2C(=O)NC2C[C@H]3C[C@@H]([C@@H]2C)C3(C)C)cccc1-c1cc(C(=O)NCCc2ccccc2)cc(N(C)C)c1 (stereo partly drawn) [Compound 1]
Ki: < 100 nM

COc1c(CN2CCC[C@H]2C(=O)N[C@H]2C[C@H]3C[C@@H]([C@@H]2C)C3(C)C)cccc1-c1cc(C(=O)N[C@@H](Cc2ccccc2)CN(C)C)cc([N+](=O)[O-])c1 [Compound 13]
Ki: > 50000 nM

COc1c(CN2CCC[C@@H]2C(=O)N[C@H]2C[C@H]3C[C@@H]([C@@H]2C)C3(C)C)cccc1-c1cc(C(=O)N[C@@H](Cc2ccccc2)CN(C)C)cc([N+](=O)[O-])c1 [Compound 18]
Ki: 300 to 50000 nM

CCN1CCC[C@@H]1CNC(=O)c1cc(-c2cccc(CN3C[C@H](O)[C@@H]([C@H](C)O)[C@H]3C(=O)NC3C[C@H]4C[C@@H]([C@@H]3C)C4(C)C)c2OC)cc(N(C)C)c1 (stereo partly drawn) [Compound 23]
Ki: < 100 nM

C[C@H](O)[C@H]1[C@@H](C(=O)NC2C[C@H]3C[C@@H]([C@@H]2C)C3(C)C)N(Cc2cccc(-c3ccc(C(=O)N(C)C)cc3)c2)C[C@@H]1O (stereo partly drawn) [Compound 24]
Ki: > 50000 nM

COc1c(CN2CC[C@H](O)[C@H]2C(=O)N[C@H]2C[C@H]3C[C@@H]([C@@H]2C)C3(C)C)cccc1-c1cc(C(=O)N[C@@H](Cc2ccccc2)CN(C)C)cc(N(C)C)c1 [Compound 26]
Ki: < 100 nM

COc1c(CN2CSC[C@H]2C(=O)N[C@H]2C[C@H]3C[C@@H]([C@@H]2C)C3(C)C)cccc1-c1cc(C(=O)N[C@@H](Cc2ccccc2)CN(C)C)cc(N(C)C)c1 [Compound 33]
Ki: < 100 nM

COc1c(CN2CSC(C)(C)[C@H]2C(=O)N[C@H]2C[C@H]3C[C@@H]([C@@H]2C)C3(C)C)cccc1-c1cc(C(=O)N[C@@H](Cc2ccccc2)CN(C)C)cc(N(C)C)c1 [Compound 34]
Ki: < 100 nM

COc1c(CN2C[C@H](N)C[C@H]2C(=O)N[C@H]2C[C@H]3C[C@@H]([C@@H]2C)C3(C)C)cccc1-c1cc(C(=O)N[C@@H](Cc2ccccc2)CN(C)C)cc(N(C)C)c1 [Compound 35]
Ki: < 100 nM

COc1c(CN2C[C@@H](N)C[C@H]2C(=O)N[C@H]2C[C@H]3C[C@@H]([C@@H]2C)C3(C)C)cccc1-c1cc(C(=O)N[C@@H](Cc2ccccc2)CN(C)C)cc(N(C)C)c1 [Compound 36]
Ki: < 100 nM

COc1c(CN2CCCC[C@H]2C(=O)N[C@H]2C[C@H]3C[C@@H]([C@@H]2C)C3(C)C)cccc1-c1cc(C(=O)N[C@@H](Cc2ccccc2)CN(C)C)cc(N(C)C)c1 [Compound 37]
Ki: > 50000 nM

COc1c(CN2CCOC[C@H]2C(=O)N[C@H]2C[C@H]3C[C@@H]([C@@H]2C)C3(C)C)cccc1-c1cc(C(=O)N[C@@H](Cc2ccccc2)CN(C)C)cc(N(C)C)c1 [Compound 38]
Ki: 300 to 50000 nM

Reference: patent US8304428B2, “Compounds and methods for inhibiting the interaction of BCL proteins with binding partners” (Infinity Discovery, Inc., priority 2005, dated 2012)
